US10870647B2, “Imidazopyridine derivative, method for preparing same, and pharmaceutical composition containing same as active ingredient for preventing or treating cancer” (DAEGU-GYEONGBUK MEDICAL INNOVATION FOUNDATION, priority 2016, dated 2020)

How the values were obtained:
Test in all cases: Kinase selectivity, scanMAX Kinase assay panel (DiscoverX), % control at 1 uM
Format in all cases: binding
[1] = molecular target: T1, scanMAX Kinase assay panel (Homo sapiens, UniProt P78362); settings: SRPK2; 1 uM; read-out: Percent Control (%)
T1 construct: purchased DiscoverX
Summary of the method: (§1)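 Single-point screen at 1 uM compound in DMSO. Lower % control means stronger inhibition, with the cutoff for activity set at <35%.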

[2] = molecular target: T2, scanMAX Kinase assay panel (Homo sapiens, UniProt P42345); settings: MTOR; 1 uM; read-out: Percent Control (%)
T2 construct: purchased DiscoverX
Summary of the method: as §1

[3] = molecular target: T3, scanMAX Kinase assay panel (Homo sapiens, UniProt Q13555); settings: CAMK2G; 1 uM; read-out: Percent Control (%)
T3 construct: purchased DiscoverX
Summary of the method: as §1

[4] = molecular target: T4, scanMAX Kinase assay panel (Homo sapiens, UniProt Q9P1W9); settings: PIM2; 1 uM; read-out: Percent Control (%)
T4 construct: purchased DiscoverX
Summary of the method: as §1

[5] = molecular target: T5, scanMAX Kinase assay panel (Homo sapiens, UniProt Q05655); settings: PRKCD; 1 uM; read-out: Percent Control (%)
T5 construct: purchased DiscoverX
Summary of the method: as §1

[6] = molecular target: T6, scanMAX Kinase assay panel (Homo sapiens, UniProt P46734); settings: MEK3; 1 uM; read-out: Percent Control (%)
T6 construct: purchased DiscoverX
T6 sequence (P46734 1-347): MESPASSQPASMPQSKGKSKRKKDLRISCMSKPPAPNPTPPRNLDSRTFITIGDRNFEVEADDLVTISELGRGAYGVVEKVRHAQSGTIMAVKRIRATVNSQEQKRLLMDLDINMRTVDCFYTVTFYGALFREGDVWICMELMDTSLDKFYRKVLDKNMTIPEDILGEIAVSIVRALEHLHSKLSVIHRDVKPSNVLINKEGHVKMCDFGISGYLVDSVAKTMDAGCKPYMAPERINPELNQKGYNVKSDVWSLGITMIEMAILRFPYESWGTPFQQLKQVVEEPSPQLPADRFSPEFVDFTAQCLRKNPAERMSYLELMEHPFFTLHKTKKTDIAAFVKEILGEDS
Summary of the method: as §1

[7] = molecular target: T7, scanMAX Kinase assay panel (Homo sapiens, UniProt Q14164); settings: IKK-epsilon; 1 uM; read-out: Percent Control (%)
T7 construct: purchased DiscoverX
T7 sequence (Q14164 1-716): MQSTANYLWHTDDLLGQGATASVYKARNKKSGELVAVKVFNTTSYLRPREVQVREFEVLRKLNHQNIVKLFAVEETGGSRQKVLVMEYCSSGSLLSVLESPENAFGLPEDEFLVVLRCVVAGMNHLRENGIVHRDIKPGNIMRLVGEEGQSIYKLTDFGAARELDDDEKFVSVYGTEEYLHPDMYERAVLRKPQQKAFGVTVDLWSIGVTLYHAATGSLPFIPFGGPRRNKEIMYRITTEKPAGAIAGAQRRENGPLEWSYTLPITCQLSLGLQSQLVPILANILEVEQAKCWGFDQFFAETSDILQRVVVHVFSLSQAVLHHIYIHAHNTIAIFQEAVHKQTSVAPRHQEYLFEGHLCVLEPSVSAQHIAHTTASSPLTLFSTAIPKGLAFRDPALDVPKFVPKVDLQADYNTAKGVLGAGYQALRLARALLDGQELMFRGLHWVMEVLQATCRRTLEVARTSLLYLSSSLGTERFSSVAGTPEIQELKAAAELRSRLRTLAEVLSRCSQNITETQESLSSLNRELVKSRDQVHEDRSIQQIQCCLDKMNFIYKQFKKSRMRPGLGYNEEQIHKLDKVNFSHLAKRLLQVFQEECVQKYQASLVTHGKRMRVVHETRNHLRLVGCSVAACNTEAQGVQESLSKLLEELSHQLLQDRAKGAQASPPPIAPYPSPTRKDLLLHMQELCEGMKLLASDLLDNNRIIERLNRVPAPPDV
Summary of the method: as §1

[8] = molecular target: T8, scanMAX Kinase assay panel (Homo sapiens, UniProt Q9Y4K4); settings: MAP4K5; 1 uM; read-out: Percent Control (%)
T8 construct: purchased DiscoverX
Summary of the method: as §1

[9] = molecular target: T9, scanMAX Kinase assay panel (Homo sapiens, UniProt Q8NG66); settings: NEK11; 1 uM; read-out: Percent Control (%)
T9 construct: purchased DiscoverX
T9 sequence (Q8NG66 1-645): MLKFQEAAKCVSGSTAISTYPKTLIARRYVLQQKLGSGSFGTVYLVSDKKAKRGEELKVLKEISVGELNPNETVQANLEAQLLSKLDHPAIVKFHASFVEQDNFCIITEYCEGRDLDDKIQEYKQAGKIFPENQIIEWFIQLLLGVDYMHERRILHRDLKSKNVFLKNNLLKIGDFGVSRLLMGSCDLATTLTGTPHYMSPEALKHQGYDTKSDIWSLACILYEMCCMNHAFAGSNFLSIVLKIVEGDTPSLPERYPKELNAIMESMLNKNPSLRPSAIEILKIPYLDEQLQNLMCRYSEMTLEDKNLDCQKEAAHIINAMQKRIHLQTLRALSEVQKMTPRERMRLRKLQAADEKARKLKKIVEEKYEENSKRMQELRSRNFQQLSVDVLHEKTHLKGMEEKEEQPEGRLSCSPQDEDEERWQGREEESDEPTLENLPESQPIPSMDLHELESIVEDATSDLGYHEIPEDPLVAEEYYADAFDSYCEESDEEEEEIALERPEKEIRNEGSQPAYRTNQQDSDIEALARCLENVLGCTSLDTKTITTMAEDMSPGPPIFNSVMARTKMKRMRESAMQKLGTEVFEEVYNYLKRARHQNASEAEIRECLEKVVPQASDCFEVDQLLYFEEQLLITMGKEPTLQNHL
Summary of the method: as §1

T3 sequence (Q13555 whole entry): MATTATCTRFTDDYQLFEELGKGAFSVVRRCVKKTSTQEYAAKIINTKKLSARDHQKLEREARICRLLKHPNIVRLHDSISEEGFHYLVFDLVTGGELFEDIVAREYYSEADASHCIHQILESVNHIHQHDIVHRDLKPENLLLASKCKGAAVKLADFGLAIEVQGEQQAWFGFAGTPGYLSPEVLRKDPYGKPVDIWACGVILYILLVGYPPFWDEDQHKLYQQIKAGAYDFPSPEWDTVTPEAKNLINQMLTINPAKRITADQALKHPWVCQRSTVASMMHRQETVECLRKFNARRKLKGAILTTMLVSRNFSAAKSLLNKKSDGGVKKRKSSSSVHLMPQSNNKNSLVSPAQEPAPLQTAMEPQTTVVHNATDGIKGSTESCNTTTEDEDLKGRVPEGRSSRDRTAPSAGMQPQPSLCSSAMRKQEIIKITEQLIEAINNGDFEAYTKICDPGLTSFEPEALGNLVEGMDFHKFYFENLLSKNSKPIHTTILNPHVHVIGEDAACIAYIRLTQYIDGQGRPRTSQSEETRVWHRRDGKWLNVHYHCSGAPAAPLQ
T5 sequence (Q05655 whole entry): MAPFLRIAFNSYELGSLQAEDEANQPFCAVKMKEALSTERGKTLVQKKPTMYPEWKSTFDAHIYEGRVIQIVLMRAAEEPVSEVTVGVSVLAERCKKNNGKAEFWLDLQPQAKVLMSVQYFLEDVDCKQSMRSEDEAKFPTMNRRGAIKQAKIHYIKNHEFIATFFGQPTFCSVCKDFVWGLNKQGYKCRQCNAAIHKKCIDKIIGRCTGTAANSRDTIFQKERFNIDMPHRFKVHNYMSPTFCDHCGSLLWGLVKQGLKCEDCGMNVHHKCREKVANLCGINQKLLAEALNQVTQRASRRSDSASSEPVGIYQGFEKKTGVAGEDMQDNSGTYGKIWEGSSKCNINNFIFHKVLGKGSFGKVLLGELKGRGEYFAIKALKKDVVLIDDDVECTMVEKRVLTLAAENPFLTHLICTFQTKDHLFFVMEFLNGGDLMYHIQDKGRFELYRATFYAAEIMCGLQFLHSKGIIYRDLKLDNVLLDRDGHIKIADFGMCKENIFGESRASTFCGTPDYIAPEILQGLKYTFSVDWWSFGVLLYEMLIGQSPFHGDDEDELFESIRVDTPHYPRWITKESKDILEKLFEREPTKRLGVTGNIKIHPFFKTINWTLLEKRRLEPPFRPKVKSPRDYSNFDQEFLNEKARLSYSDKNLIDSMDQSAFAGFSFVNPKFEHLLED
T4 sequence (Q9P1W9 whole entry): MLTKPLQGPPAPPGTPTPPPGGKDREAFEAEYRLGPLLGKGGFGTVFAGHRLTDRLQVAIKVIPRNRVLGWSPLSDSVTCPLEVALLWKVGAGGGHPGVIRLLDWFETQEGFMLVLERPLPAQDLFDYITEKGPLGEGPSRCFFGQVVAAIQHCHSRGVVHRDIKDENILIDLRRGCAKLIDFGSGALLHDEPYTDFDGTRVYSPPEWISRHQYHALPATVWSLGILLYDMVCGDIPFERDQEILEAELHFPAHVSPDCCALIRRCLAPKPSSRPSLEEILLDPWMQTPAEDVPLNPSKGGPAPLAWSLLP
T1 sequence (P78362 whole entry): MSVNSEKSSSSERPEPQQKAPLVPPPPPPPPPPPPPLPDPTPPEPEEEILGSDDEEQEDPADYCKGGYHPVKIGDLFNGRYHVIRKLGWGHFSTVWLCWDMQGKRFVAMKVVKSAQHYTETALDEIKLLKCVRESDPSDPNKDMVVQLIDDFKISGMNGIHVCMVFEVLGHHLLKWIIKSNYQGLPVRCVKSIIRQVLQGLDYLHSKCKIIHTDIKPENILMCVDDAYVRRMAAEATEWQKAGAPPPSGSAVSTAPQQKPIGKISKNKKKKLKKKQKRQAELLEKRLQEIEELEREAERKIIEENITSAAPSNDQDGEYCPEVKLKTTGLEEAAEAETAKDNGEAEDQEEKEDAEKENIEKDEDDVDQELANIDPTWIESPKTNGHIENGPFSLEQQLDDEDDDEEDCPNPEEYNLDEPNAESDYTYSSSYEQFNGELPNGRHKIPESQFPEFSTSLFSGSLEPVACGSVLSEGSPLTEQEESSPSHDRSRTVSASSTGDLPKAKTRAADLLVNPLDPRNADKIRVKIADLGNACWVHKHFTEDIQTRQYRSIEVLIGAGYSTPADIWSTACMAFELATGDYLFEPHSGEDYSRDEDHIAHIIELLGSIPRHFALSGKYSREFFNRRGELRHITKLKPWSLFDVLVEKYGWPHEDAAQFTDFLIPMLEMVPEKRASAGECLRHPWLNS
T8 sequence (Q9Y4K4 whole entry): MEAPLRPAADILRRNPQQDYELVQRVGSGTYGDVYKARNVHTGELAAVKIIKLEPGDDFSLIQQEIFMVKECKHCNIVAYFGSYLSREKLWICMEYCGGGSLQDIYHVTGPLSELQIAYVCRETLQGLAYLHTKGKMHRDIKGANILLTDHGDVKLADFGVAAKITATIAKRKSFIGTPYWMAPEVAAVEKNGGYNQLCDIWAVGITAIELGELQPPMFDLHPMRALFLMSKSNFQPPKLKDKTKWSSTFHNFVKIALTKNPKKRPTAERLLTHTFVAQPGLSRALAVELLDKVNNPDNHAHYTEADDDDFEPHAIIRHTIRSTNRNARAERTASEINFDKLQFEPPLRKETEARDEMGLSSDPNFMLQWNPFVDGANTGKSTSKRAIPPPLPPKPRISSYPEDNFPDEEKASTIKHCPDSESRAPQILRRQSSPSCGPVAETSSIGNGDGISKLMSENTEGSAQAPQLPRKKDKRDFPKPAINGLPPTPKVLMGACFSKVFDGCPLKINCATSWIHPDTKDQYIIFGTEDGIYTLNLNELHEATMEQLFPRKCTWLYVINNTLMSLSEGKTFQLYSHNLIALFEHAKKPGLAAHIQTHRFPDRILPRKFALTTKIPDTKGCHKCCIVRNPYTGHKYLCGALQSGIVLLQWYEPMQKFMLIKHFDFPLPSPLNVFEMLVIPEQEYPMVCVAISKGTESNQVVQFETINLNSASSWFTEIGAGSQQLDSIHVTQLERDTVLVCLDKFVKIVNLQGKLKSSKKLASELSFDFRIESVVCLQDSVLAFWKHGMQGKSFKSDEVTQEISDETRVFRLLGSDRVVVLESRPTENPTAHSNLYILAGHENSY

Structure (SMILES) | remaining binding at 1 µM [1] [%] | remaining binding at 1 µM [2] [%] | remaining binding at 1 µM [3] [%] | remaining binding at 1 µM [4] [%] | remaining binding at 1 µM [5] [%] | remaining binding at 1 µM [6] [%] | remaining binding at 1 µM [7] [%] | remaining binding at 1 µM [8] [%] | remaining binding at 1 µM [9] [%]
Cc1ccc(NC(=O)C2(C(=O)Nc3ccc(F)cc3)CC2)cc1C#Cc1cnc2c(Nc3cnn(C(C)C)c3)cccn12 [Example 78] | 100 | 91 | 100 | 100 | 100 | 96 | 100 | 82 | 100
Cc1cn(-c2cc(NC(=O)c3ccc(C)c(C#Cc4cnc5c(Nc6cnn(C)c6)cccn45)c3)cc(C(F)(F)F)c2)cn1 [Example 12, 4-methyl-N-(3-(4-methyl-1H-imidazol-1-yl)-5-(trifluoromethyl)phenyl)-3-((8-((1-methyl-1H-pyrazol-4-yl)amino)imidazo[1,2-a]pyridin-3-yl)ethynyl)benzamide] | 87 | 66 | 80 | 91 | 81 | 100 | 100 | 12 | 100
Cc1ccc(C(=O)Nc2ccc(CN3CCN(C)CC3)c(C(F)(F)F)c2)cc1C#Cc1cnc2c(Nc3cnn(C)c3)cccn12 [Example 1, 4-methyl-3-((8-((1-methyl-1H-pyrazol-4-yl)amino)imidazo[1,2-a]pyridin-3-yl)ethynyl)-N-(4-((4-methylpiperazin-1-yl)methyl)-3-(trifluoromethyl)phenyl)benzamide] | 97 | 77 | 73 | 100 | 61 | 81 | 66 | 1 | 13
